Columns and labels:
[1] = target: Insulin receptor (Homo sapiens, UniProt P06213); experiment: Inhibition of insulin receptor kinase (unknown origin)
[2] = tested on: Rattus norvegicus; experiment: Half life in rat at 1 mg/kg, iv; assay type: ADME, organism-based; design: dose 1 mg/kg, route intravenous; conditions: in vivo
[3] = tested on: Rattus norvegicus; experiment: Volume of distribution in rat at 1 mg/kg, iv; assay type: ADME, organism-based; design: dose 1 mg/kg, route intravenous; conditions: in vivo
[4] = AUC (0 to infinity) in rat at 1 mg/kg, iv; assay type: ADME, organism-based; design: dose 1 mg/kg, route intravenous, time infinity; conditions: plasma
[5] = (§1) Cmax in rat at 5 mg/kg, po; assay type: ADME, organism-based; design: dose 5 mg/kg, route oral; conditions: in vivo
[6] = (§2) AUC (0 to infinity) in rat at 5 mg/kg, po; assay type: ADME, organism-based, Plasma; design: dose 5 mg/kg, route oral, time infinity; conditions: plasma
[7] = Oral bioavailability in rat at 5 mg/kg; assay type: ADME, organism-based; conditions: in vivo
[8] = tested on: Liver microsome; experiment: Bioactivation in human liver microsomes in presence of NADPH
[9] = tested on: Liver microsome; experiment: Metabolic stability in human liver microsomes assessed as GSH conjugation by LC/MS analysis; assay type: ADME
[10] = target: T1, Cytochrome P450 3A4 (Homo sapiens, UniProt P08684); experiment: Inhibition of CYP3A4 in human pooled liver microsomes using testosterone as substrate by LC/MS/MS analysis
[11] = target: T1, Cytochrome P450 3A4; experiment: Inhibition of CYP3A4 in human pooled liver microsomes using midazolam as substrate by LC/MS/MS analysis
[12] = Apparent permeability of the compound from apical to basolateral side in human Caco2 cells by absorption system analysis; conditions: Caco-2
[13] = target: Voltage-gated inwardly rectifying potassium channel KCNH2 (Homo sapiens, UniProt Q12809); experiment: Inhibition of human ERG by automated patch-clamp assay
[14] = target: T2, Cytochrome P450 1A2 (Homo sapiens, UniProt P05177); experiment: Inhibition of CYP1A2 in human pooled liver microsomes using phenacetin as substrate by LC/MS/MS analysis
T2 sequence (P05177 whole entry): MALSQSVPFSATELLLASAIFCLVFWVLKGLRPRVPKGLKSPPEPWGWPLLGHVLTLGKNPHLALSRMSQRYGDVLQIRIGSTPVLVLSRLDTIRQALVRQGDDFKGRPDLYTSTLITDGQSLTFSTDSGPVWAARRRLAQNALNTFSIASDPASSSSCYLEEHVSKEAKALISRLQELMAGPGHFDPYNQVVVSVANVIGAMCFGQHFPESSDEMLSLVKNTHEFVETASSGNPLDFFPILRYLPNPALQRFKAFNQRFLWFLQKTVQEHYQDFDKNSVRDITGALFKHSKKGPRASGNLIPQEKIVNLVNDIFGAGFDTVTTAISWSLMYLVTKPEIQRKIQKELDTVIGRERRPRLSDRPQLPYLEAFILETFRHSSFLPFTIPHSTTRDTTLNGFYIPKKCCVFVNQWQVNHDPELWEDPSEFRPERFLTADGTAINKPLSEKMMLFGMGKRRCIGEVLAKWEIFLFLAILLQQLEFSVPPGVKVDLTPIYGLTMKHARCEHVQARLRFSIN

[15] = target: Cytochrome P450 2C9 (Homo sapiens, UniProt P11712); experiment: Inhibition of CYP2C9 in human pooled liver microsomes using diclofenac as substrate by LC/MS/MS analysis
[16] = target: Cytochrome P450 2C19 (Homo sapiens, UniProt P33261); experiment: Inhibition of CYP2C19 in human pooled liver microsomes using S-mephenytoin as substrate by LC/MS/MS analysis
[17] = target: Cytochrome P450 2D6 (Homo sapiens, UniProt P10635); experiment: Inhibition of CYP2D6 in human pooled liver microsomes using dextromethorphan as substrate by LC/MS/MS analysis
[18] = tested on: Rattus norvegicus; experiment: as §1; assay type: ADME, organism-based; design: dose 5 mg/kg, route oral; conditions: in vivo, BLD = below limit of detection
[19] = tested on: Rattus norvegicus; experiment: as §2; assay type: ADME, organism-based, Plasma; design: dose 5 mg/kg, route oral, time infinity; conditions: in vivo, BLD = below limit of detection
[20] = target: ALK tyrosine kinase receptor (Homo sapiens, UniProt Q9UM73); experiment: Inhibition of ALK (unknown origin)
Sequence of ALK tyrosine kinase receptor (Q9UM73 whole entry): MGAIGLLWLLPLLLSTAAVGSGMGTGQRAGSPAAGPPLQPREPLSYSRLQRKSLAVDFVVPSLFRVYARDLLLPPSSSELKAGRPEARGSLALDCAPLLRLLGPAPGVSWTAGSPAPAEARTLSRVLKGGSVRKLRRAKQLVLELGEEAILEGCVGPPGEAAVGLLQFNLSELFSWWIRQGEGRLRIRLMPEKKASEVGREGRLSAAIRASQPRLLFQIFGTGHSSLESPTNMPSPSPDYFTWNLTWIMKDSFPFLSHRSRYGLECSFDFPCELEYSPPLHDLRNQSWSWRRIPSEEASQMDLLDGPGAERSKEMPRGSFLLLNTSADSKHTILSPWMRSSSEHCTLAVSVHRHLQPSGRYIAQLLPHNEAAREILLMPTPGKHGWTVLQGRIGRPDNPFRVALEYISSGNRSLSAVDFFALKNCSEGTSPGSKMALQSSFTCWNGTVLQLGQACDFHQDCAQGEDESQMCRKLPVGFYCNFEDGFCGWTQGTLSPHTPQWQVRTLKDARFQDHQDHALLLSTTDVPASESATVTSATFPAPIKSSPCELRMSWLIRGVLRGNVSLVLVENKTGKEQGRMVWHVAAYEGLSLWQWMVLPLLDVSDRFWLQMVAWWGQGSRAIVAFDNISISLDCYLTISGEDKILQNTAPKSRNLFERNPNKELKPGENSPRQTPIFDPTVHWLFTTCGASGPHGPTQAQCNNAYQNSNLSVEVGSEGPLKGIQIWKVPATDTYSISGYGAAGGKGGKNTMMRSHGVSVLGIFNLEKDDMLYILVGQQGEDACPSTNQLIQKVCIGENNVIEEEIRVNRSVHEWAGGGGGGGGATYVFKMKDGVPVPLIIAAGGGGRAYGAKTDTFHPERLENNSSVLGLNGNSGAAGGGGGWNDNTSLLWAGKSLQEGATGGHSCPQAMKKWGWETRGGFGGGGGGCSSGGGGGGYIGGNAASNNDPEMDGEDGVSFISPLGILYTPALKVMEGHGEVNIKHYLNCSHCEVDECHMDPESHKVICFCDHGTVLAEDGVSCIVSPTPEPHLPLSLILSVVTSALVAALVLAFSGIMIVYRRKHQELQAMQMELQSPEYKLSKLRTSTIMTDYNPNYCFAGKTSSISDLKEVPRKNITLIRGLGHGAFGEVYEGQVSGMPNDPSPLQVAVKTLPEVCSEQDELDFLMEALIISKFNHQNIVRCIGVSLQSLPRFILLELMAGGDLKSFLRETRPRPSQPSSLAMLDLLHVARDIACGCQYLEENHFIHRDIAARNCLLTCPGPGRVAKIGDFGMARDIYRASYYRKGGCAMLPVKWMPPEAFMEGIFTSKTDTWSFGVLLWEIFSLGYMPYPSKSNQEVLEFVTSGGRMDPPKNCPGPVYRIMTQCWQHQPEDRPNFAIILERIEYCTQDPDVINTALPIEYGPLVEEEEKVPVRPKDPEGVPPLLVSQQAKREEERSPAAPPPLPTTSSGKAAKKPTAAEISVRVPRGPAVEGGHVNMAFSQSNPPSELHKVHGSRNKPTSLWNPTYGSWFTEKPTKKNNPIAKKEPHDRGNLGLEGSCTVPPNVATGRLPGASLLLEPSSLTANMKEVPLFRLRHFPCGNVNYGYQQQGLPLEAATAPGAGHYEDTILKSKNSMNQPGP

T1 sequence (P08684 whole entry): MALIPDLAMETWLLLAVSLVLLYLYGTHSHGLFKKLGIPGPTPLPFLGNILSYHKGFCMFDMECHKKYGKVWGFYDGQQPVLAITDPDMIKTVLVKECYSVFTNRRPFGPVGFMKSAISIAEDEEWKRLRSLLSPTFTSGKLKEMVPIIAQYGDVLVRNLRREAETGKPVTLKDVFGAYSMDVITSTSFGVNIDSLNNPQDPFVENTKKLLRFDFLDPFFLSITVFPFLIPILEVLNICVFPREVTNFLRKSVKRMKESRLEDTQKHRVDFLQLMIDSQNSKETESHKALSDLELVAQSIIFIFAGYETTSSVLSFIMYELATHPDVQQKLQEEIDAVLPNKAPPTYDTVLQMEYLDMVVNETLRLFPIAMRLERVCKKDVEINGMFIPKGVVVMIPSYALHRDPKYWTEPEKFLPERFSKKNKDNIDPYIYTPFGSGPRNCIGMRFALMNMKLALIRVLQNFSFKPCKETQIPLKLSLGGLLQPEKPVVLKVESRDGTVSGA
Sequence of Cytochrome P450 2C19 (P33261 whole entry): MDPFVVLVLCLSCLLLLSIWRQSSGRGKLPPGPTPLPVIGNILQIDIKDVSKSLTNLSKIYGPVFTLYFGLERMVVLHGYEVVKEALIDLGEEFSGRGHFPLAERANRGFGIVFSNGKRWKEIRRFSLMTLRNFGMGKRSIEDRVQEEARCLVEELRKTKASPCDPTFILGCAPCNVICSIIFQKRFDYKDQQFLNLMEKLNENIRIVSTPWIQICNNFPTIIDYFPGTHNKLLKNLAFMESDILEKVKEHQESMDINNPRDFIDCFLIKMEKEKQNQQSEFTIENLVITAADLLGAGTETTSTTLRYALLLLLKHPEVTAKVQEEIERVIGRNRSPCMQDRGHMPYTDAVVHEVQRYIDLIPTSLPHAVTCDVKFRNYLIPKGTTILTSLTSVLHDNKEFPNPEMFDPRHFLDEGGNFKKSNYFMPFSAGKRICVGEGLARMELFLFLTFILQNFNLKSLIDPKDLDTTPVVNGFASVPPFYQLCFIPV
Sequence of Cytochrome P450 2C9 (P11712 whole entry): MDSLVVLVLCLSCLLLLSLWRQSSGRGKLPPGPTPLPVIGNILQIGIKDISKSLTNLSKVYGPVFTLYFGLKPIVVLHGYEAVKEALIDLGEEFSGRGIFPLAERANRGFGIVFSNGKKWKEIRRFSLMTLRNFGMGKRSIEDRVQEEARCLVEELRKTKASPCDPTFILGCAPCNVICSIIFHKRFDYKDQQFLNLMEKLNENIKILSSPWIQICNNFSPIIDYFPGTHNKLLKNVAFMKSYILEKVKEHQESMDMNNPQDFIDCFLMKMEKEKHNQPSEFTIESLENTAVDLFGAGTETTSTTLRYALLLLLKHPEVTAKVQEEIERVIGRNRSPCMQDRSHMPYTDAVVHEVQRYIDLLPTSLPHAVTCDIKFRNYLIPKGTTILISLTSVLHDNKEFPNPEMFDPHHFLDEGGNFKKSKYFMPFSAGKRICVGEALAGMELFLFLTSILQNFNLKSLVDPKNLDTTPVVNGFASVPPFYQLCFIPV
Sequence of Cytochrome P450 2D6 (P10635 whole entry): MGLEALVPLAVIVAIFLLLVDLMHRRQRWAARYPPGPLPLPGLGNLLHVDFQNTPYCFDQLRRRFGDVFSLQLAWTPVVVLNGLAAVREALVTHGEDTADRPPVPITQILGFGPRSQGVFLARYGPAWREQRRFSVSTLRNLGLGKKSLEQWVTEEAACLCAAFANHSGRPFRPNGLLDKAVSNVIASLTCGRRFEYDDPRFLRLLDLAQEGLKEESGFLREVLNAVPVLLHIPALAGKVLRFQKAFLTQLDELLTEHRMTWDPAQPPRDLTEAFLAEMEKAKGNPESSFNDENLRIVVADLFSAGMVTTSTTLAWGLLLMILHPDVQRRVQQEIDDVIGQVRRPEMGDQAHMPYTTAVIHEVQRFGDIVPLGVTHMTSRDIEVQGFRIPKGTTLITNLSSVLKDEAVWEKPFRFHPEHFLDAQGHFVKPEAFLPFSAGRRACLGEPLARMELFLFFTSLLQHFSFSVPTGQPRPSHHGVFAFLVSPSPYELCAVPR
Sequence of Insulin receptor (P06213 28-758 limits assumed): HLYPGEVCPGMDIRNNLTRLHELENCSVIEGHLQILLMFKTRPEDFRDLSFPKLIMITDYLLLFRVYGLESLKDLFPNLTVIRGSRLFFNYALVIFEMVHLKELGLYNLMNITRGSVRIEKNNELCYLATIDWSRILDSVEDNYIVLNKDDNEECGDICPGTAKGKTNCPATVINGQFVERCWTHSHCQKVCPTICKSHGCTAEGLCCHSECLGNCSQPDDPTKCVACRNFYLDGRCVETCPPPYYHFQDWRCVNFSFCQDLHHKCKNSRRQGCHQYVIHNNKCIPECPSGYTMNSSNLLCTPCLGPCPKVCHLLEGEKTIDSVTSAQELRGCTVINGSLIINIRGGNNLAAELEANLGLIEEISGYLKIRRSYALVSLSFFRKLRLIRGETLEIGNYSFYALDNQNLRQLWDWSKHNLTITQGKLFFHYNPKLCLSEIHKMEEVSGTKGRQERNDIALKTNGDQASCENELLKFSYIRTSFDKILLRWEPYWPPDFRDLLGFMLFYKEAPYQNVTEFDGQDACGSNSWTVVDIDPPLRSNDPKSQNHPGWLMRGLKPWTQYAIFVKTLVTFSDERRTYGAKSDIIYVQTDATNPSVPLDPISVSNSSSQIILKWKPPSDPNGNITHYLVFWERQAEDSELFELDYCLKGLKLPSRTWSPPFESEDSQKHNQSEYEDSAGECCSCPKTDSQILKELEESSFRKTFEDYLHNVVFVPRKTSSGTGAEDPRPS
Sequence of Insulin receptor (P06213 763-1382 limits assumed): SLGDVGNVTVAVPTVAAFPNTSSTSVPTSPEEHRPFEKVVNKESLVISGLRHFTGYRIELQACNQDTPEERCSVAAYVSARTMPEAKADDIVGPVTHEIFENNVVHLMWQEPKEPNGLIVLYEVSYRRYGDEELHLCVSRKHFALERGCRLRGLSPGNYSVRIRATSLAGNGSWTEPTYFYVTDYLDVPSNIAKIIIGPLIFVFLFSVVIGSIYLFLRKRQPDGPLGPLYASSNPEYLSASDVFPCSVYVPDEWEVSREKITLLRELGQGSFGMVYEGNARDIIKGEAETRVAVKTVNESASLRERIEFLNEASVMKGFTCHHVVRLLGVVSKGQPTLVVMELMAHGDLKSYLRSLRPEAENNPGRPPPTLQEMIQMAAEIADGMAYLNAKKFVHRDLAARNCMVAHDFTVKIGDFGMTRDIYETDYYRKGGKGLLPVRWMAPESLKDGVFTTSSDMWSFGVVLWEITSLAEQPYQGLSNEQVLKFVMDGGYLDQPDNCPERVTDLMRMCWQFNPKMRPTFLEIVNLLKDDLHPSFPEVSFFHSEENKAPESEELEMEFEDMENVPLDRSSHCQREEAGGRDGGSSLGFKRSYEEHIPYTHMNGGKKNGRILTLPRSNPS

| SMILES | t1/2 [2] | Vd [3] | AUC(0-inf) [4] | Cmax [5] | AUC(0-inf) [6] | bioavailability [7] | IC50 [10] | IC50 [11] | IC50 [14] | IC50 [15] | IC50 [16] | IC50 [17] | also measured |
| --- | --- | --- | --- | --- | --- | --- | --- | --- | --- | --- | --- | --- | --- |
| COc1cccc(-c2nc3c(N[C@H]4[C@@H](C(N)=O)[C@@H]5C=C[C@H]4C5)c(Cl)cnc3[nH]2)c1 |  |  |  |  |  |  |  |  |  |  |  |  | IC50 [1]: > 3 µM |
| COc1cc(N2CCC(N3CCOCC3)CC2)ccc1-c1nc2c(N[C@H]3[C@@H](C(N)=O)[C@@H]4C=C[C@H]3C4)c(Cl)cnc2[nH]1 | 1.9 h | 1.8 L/kg | 1750 ng·h/mL | 158 ng/mL | 740 ng·h/mL | 8% |  |  |  |  |  |  |  |
| COc1cc(N2CCC(N3CCN(C)CC3)CC2)ccc1-c1nc2c(N[C@H]3[C@@H](C(N)=O)[C@@H]4C=C[C@H]3C4)c(Cl)cnc2[nH]1 | 2.5 h | 3 L/kg | 1430 ng·h/mL |  |  | 0% | > 30 µM | > 30 µM | > 30 µM | > 30 µM | > 30 µM | > 30 µM | Cmax [18]: BLD; AUC [19]: BLD |
| COc1cc(CN2CCN(C)CC2)ccc1-c1nc2c(N[C@H]3[C@@H](C(N)=O)[C@@H]4C=C[C@H]3C4)c(Cl)cnc2[nH]1 | 1.1 h | 1.6 L/kg | 1140 ng·h/mL |  |  | 0% |  |  |  |  |  |  | Cmax [18]: BLD; AUC [19]: BLD |
| NC(=O)[C@@H]1[C@H](Nc2ccnc3[nH]c(-c4ccc(N5CCOCC5)cc4)nc23)[C@H]2C=C[C@@H]1C2 |  |  |  |  |  |  |  |  |  |  |  |  | IC50 [20]: > 10 µM |
| CN1CCN(c2ccc(-c3nc4c(N[C@H]5[C@@H](C(N)=O)[C@@H]6C=C[C@H]5C6)ccnc4[nH]3)cc2)CC1 |  |  |  |  |  |  |  |  |  |  |  |  | IC50 [20]: > 3 µM |

More lines, main results first:

| t1/2 [2] | Vd [3] | AUC(0-inf) [4] | Cmax [5] | AUC(0-inf) [6] | bioavailability [7] | IC50 [10] | IC50 [11] | IC50 [14] | IC50 [15] | IC50 [16] | IC50 [17] | SMILES | also measured |
| --- | --- | --- | --- | --- | --- | --- | --- | --- | --- | --- | --- | --- | --- |
| 1.4 h | 0.8 L/kg | 2480 ng·h/mL | 429 ng/mL | 2580 ng·h/mL | 21% |  |  |  |  |  |  | COc1cc(N2CCOCC2)ccc1-c1nc2c(N[C@H]3[C@@H](C(N)=O)[C@@H]4C=C[C@H]3C4)c(Cl)cnc2[nH]1 | Stability [8]: Stable; Stability [9]: Stable |
| 1.4 h | 5.3 L/kg | 416 ng·h/mL | 26 ng/mL | 148 ng·h/mL | 7% | 8.5 µM | 13.7 µM | > 30 µM | > 30 µM | > 30 µM | > 30 µM | COc1cc(N2CCN(C)CC2)ccc1-c1nc2c(N[C@H]3[C@@H](C(N)=O)[C@@H]4C=C[C@H]3C4)c(Cl)cnc2[nH]1 | Papp A→B [12]: 5 ×10⁻⁶ cm/s; IC50 [13]: > 10 µM |
| 1.6 h | 5.6 L/kg | 451 ng·h/mL | 317 ng/mL | 1730 ng·h/mL | 76% | > 30 µM | > 30 µM | > 30 µM | > 30 µM | > 30 µM | > 30 µM | COc1cc(CN2CCOCC2)ccc1-c1nc2c(N[C@H]3[C@@H](C(N)=O)[C@@H]4C=C[C@H]3C4)c(Cl)cnc2[nH]1 | Papp A→B [12]: 10.8 ×10⁻⁶ cm/s |

Source: ChEMBL document CHEMBL3217622, “Design of 7-amino-6-chloro-3H-imidazo[4,5-b]pyridine scaffold from 5-chloro-2,4-diaminopyrimidine pharmacophore: identification of potent inhibitors of anaplastic lymphoma kinase” (Medchemcomm, 2012)
